Source: publication PMC1764880, “Acyl-CoA-binding and self-associating properties of a recombinant 13.3 kDa N-terminal fragment of diacylglycerol acyltransferase-1 from oilseed rape” (BMC Biochemistry, 2006)

Legend:
[1] = biological target: T1, BnDGAT1(1–116)His6 (Brassica napus, UniProt Q9XGR5); experiment: Lipidex-1000 competition binding against [[…]-14C]oleoyl-CoA; details: 8 μM free CoA displacing 19 μM [1-14C]oleoyl-CoA, 0.2 μM protein
T1 construct: gene DGAT1; N-terminal hydrophilic cytosolic fragment, residues 1-116, followed by AALE linker and C-terminal His6 (tag kept); pET26b(+), E. coli BL21(DE3), Ni-NTA purified; calculated mass 13,278 Da; self-associates to dimer and tetramer; contains peptide 21-LDRLHRRKSSSDSSN-35
T1 sequence (Q9XGR5 1-116): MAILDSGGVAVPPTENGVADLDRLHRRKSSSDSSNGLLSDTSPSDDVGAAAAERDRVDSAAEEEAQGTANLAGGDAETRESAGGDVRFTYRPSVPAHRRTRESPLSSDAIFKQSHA

[2] = biological target: T1, BnDGAT1(1–116)His6; experiment: Lipidex-1000 radioligand binding, Scatchard plot; details: read-out: dissociation constant

Kd [2] [µM] | Structure (SMILES) | Lipidex-1000 competition binding against [1-14C]oleoyl-CoA [1]
– | CC(C)(COP(=O)(O)OP(=O)(O)OC[C@H]1O[C@@H](n2cnc3c(N)ncnc32)[C@H](O)[C@@H]1OP(=O)(O)O)[C@@H](O)C(=O)NCCC(=O)NCCS [CoA] | free CoA or oleoyl-CoA was effective in displacing a similar quantity of radiolabeled ligand
~2 | CCCCCCCC/C=C\CCCCCCCCCCCC(=O)SCCNC(=O)CCNC(=O)[C@H](O)C(C)(C)COP(=O)(O)OP(=O)(O)OC[C@H]1O[C@@H](n2cnc3c(N)ncnc32)[C@H](O)[C@@H]1OP(=O)(O)O [erucoyl-CoA] | –
~17 | CCCCCCCC/C=C\CCCCCCCC(=O)SCCNC(=O)CCNC(=O)[C@H](O)C(C)(C)COP(=O)(O)OP(=O)(O)OC[C@H]1O[C@@H](n2cnc3c(N)ncnc32)[C@H](O)[C@@H]1OP(=O)(O)O [oleoyl-CoA] | –
